Measured values taken from patent US20130190345A1, “MATRINIC ACID/MATRINE DERIVATIVES AND PREPARATION METHODS AND USES THEREOF” (priority 2010, published 2013).
In brackets after ≈: the same amount, converted by molar mass.

What was measured:
Type in all cases: cell-based
[1] = system: 2.2.15 cells; test: Drug TC50 by MTT detection; details: Reed-Muench
Description: 2.2.15 cells (all cells were purchased from Vertex Pharmaceutical Co., USA) in exponential growth phase were inoculated on 96-well culture plate, 2×10^5 cells/well, added with culture media containing PFA diluted in different concentration rates, 3 wells for each diluted concentration, placed in 37° C. CO2—containing incubator and cultivated for 48 h; the supernatant was discarded, 100 μl of MTT (0.5 mg/ml) in culture medium was added, cultivation was continuously performed at 37° C. for 4 h; each well was added to 100 μl of 50% DMF-20% SDS destaining solution, stood at 37° C. overnight; ELISA was used to measure optical density at wavelength of 570 nm (0D570).
In each experiment, 3 cell control wells and 3 blank controls well were set, the results were used in formula, (cell control OD570-drug-medicated cell OD570)/cell control OD570, to calculate cell death rate (%), and Reed-Muench method was used to calculate half toxic concentration TC50.

[2] = system: HCV; test: Inhibition effects of compounds on HCV in Huh7.5 cultured cell after HCV infection; details: for EC50 (half effective concentration): virus not given, stands beside HCV inhibition rate
Description: 1×10^5/ml Huh7.5 cells (purchased from Vertex Pharmaceutical Co., USA) were inoculated in an amount of 0.1 ml on 96-well culture plate, placed in an incubator with 37° C., 5% CO2 content and saturation humidity, and cultured for 24 h, HCV virus in 45 IU/cell was used to infect Huh7.5, different drug solutions (DM122) formulated with culture medium were added, and cell control and HCV infection control were set. Cultivation was continuously performed in the incubator with 37° C., 5% CO2 content and saturation humidity for 72 h, kit for RNA extraction was used to extract intracellular RNA, one-step qRT-PCR was used to determine intracellular contents of HCV and GAPDH RNA, and the inhibition effects of drug on HCV infection was analyzed. […] In comparison with the virus control group, the inhibition effects on HCV infection upon action of different drugs were analyzed. […] This experiment was repeated for 3 times, * indicated […] in comparison with control, ** indicated p<0.01 in comparison with control.

[3] = system: Hsc70; test: Detection of Hsc70 gene expression level upon action of compound on 2.2.15 cells (real-time fluorescent quantified PCR); set-up: Hsc70 mRNA / Hsc70 down-regulation rate (%): unit not given here; details: for Hsc70 inhibition rate (down-regulation of Hsc70 expression activity, expressed in relative OMT ratio): 2.2.15 cells, relative to OMT (= 1); for Hsc70 down-regulation rate (%): single value, concentration not given, values coincide with Table 1 relative OMT ratios
Description: 2.2.15 cells (purchased from Vertex Pharmaceutical Co., USA) in a number of 1×10^6 were inocubated to 6-well plate, cultured in a culture medium containing 10% fetal calf serum for 24 hr, the original culture medium was discarded, replaced with a culutre medium containing 400 μg/ml OMTR, which was used as control. Compounds were firstly dissolved in MEM to form 20 mg/ml mother liquid, which was diluted with culture medium when used and then applied to cells. The compounds of Examples 1-114 were separately used for treatment for 12, 24, 36 hr, then cells were harvested for extraction of RNA and DNA, then the changes of Hsc70 mRNA and HBV DNA were detected by real-time fluorescent quantified PCR.

[4] = system: Hsc70; test: Inhibition effects of compound on Hsc70 in Huh7.5 cultured cell (qRT-PCR, Western blotting); set-up: key to Hsc70 down-regulation rate (%): “—” represents no significant inhibition rate
Description: 2×10^5/ml Huh7.5 cells (purchased from Vertex Pharmaceutical Co., USA) were inoculated in an amount of 3 ml on 6-well culture plate, placed in an incubator with 37° C., 5% CO2 content, saturation humidity, and cultured for 24 h, added with different drug solutions (DM122) formulated with culture medium, and cell control was set. Cultivation was continuously performed in the incubator with 37° C., 5% CO2 content, saturation humidity for 24 h, a kit for RNA extraction was used to extract intracellular RNA from the cells, and one-step qRT-PCR was used to determine intracellular contents of Hsc70 and GAPDHRNA. After the cultivation of cells was performed for 48 h, the cells were digested and harvested, then the cells were split with CytoBuster™ Protein Extraction Buffer that contained many kinds of protease inhibitors, total intracellular proteins were extracted, and Western blotting was used to analyze the contents of Hsc70 and GAPDH proteins. In comparison with the cell control, the inhibition effects on Hsc70 upon action of different drugs were analyzed.

| Molecule | CC50 (concentration to cause poisoning in half cells) [1] [µg/mL] | EC50 (half effective concentration) [2] [µg/mL] | Hsc70 inhibition rate (down-regulation of Hsc70 expression activity, expressed in relative OMT ratio) [3] | Hsc70 down-regulation rate (%) [3] | Hsc70 down-regulation rate (%) ([4]; 200 ug/ml (upper data)) | Hsc70 down-regulation rate (%) ([4]; 400 ug/ml (lower data)) | HCV inhibition rate (%) ([2]; 200 ug/ml (upper data)) | HCV inhibition rate (%) ([2]; 400 ug/ml (lower data)) |
| --- | --- | --- | --- | --- | --- | --- | --- | --- |
| N#Cc1cccc(S(=O)(=O)N2CC3CCCN4CCCC(C34)C2CC=CC(=O)O)c1 (centres unmarked) [SC-89b, N-(m-cyanobenzenesulfonyl) sophocarpinic acid] | 123.08 (≈ 287 µM) | 3.98 (≈ 9.27 µM) |  |  |  |  |  |  |
| O=C(O)CCCC1C2CCCN3CCCC(CN1Cc1ccccn1)C23 (centres unmarked) [DM-143, N-(pyridin-2-yl) methyl matrinic acid] | 374.5 (≈ 1050 µM) | 12.46 (≈ 34.9 µM) | 1.1 | 1.1 |  |  |  |  |
| COc1ccc(C(=O)N2CC3CCCN4CCCC(C34)C2CCCC(=O)O)cc1 (centres unmarked) [DM-151, N-(4-methoxybenzoyl) matrinic acid] |  |  |  |  | — | 11.5 ± 2.4% | 20.5 ± 3.2 | 53.4 ± 5.6 |
| O=C(O)CCCC1C2CCCN3CCCC(CN1Cc1ccc(Br)cc1)C23 (centres unmarked) [DM-128, N-(4-bromobenzyl) matrinic acid] | 535.1 (≈ 1230 µM) | 51.66 (≈ 119 µM) | −5.78 | −5.78 |  |  |  |  |
| O=C(O)CCC[C@@H]1[C@H]2CCCN3CCC[C@@H](CN1C(=O)c1ccc(C(F)(F)F)cc1)[C@@H]23 [DM-155, N-(4-trifluoromethylbenzoyl) matrinic acid] | >1000 | >333.33 |  |  |  |  |  |  |
| O=C(O)CCCC1C2CCCN3CCCC(CN1Cc1cccc(Cl)c1)C23 (centres unmarked) [DM-125, N-(3-chlorobenzyl) matrinic acid] | >1000 | 34.35 (≈ 87.9 µM) | <10 | −67.97 |  |  |  |  |
| O=C(O)C=CCC1C2CCCN3CCCC(CN1S(=O)(=O)c1ccc(C(F)(F)F)cc1)C23 (centres unmarked) [SC-84a, N-(p-trifluoromethylbenzene sulfonyl) sophocarpinic acid] | 530.07 (≈ 1120 µM) | 7.54 (≈ 16 µM) |  |  |  |  |  |  |
| O=C(O)CCCC1C2CCCN3CCCC(CN1C(=O)c1cccc([N+](=O)[O-])c1)C23 [Compound L9, (5R)—N-(3-nitrobenzoyl)matrinic acid] |  |  |  |  | 20.1 ± 11.1% | — | 62.5 ± 0.3 | 68.9 ± 3.8 |
| N-(4-ethenyl benzyl) matrinic acid [DM-136] | 70.49 | 1.80 | 0.76 | 0.76 |  |  |  |  |
| O=C(O)CCCC1C2CCCN3CCCC(CN1Cc1cccnc1)C23 (centres unmarked) [DM-144, N-(pyridin-3-yl) methyl matrinic acid] | >1000 | 31.8 (≈ 89 µM) |  |  |  |  |  |  |
| O=C(O)CCC[C@@H]1[C@H]2CCCN3CCC[C@@H](CN1Cc1ccc(Cl)c(Cl)c1)[C@@H]23 [DM-127, N-(3,4-dichlorobenzyl) matrinic acid] | 427.8 (≈ 1010 µM) | 113.64 (≈ 267 µM) | −2.92 | −2.92 |  |  |  |  |
| N#Cc1ccc(C(=O)N2CC3CCCN4CCCC(C34)C2CCCC(=O)O)cc1 (centres unmarked) [DM-152, N-(4-cyanobenzoyl) matrinic acid] | >1000 | 125.65 (≈ 318 µM) |  |  |  |  |  |  |
